Measured values from patent US20240358692A1, “TREATMENT OF SCLERODERMA” (Aisa Pharma, Inc., priority 2023, published 2024).

Experiments:
[1] = test system: participants with SSc-RP; assay: Average pain score recorded during weekly RP attacks (11-point Likert scale); type: in vivo, human; settings: for Average Pain Score Change From Baseline [Mean (SD)]: Table G
Source text: The absolute change in average pain score (11-point Likert scale) of weekly RP attacks from baseline to the end of each Dosing Period will be a secondary outcome variable. The sponsor-developed participant-informed diary will be used to record data. The average pain score of weekly RP attacks is defined as the total pain scores divided by total number of RP attacks within the last 7 days of each dosing period. Average of the last 7 days of screening assessments will be used as baseline for the analysis of all periods. The variable will be calculated similar to frequency data as before.

[2] = test system: participants with SSc-RP; assay: SHAQ - Standard Disability Index; type: in vivo, human; design: key to SHAQ Standard Disability Index, In-Clinic Visit (Day 12), Mean / SHAQ Standard Disability Index, In-Clinic Visit (Day 12), Median / SHAQ Standard Disability Index, Day 12, Mean / SHAQ Standard Disability Index, Day 12, Median: 0 = without any difficulty to 3 = unable to do; settings: for % change in Standard Disability Index: SHAQ, mITT Part A
Source text: The standard, validated, patient reported outcome measures tool for SSc patients, the Scleroderma Health Assessment Questionnaire (SHAQ), will be used to assess the participant qualify of life. Details are attached in the Appendix. The participant quality of life will be scored, and a disability index calculated for each questionnaire completed by the patient at Screening and each in-clinic visit. The absolute change in participant quality of life from baseline to the end of each dosing period will be calculated similar to frequency data as before.
The SHAQ is used to calculate a Disability Index to assess the participant qualify of life. The eight categories assessed by the Disability Index are 1) dressing and grooming, 2) arising, 3) eating, 4) walking, 5) hygiene, 6) reach, 7) grip, and 8) common daily activities. For each of these categories, patients report the amount of difficulty they have in performing two or three specific activities.
There are four possible responses for the Disability Index questions: • Without any difficulty=0 • With some difficulty=1 • With much difficulty=2 • Unable to do=3 • The highest score reported by the patient for any component question of the eight categories determines the score for that category. • If a component question is left blank or the response is too ambiguous to assign a score, then the score for that category is determined by the remaining completed question(s). • If all component questions are blank or if more than one answer is given, then follow up with the respondent is required. • If the respondent's mark is between the response columns, then move it to the closest one. If it's directly between the two, move it to the higher one.
This question results in a new set of category scores that are computed by adjusting the score for each category, if necessary, based on the patient's use of an aid or device or assistance for that category. If either devices and/or help from another person are checked for a category, the score is set to “2”, unless the score is already “3” (i.e., scores of “0” or “1” are increased to “2”). For example, if the highest score for the dressing category is “1”, and the patient says they use a device for dressing, the computed category score would be “2”. The sum of the computed categories scores is then calculated and divided by the number of categories answered. This gives a score in the 0 to 3 range.

[3] = Any Cilnidipine (N = 17), Day 12, PP Population, Part A
[4] = Cilnidipine 10 mg, SSc patients, PP, Part A
[5] = Cilnidipine 20 mg (N = 3), Day 12, Patients with Diagnosis of SSc, Modified ITT Population - Part A
[6] = Cilnidipine 20 mg, SSc patients, PP, Part A
[7] = Pooled Cilnidipine 20 mg and Cilnidipine 20 mg + Tadalafil 5 mg (N = 8), Day 12, PP Population, Part A
[8] = Pooled Cilnidipine (N = 8), Day 12, PP Population, Part A
[9] = pooled Cilnidipine 10 mg and Cilnidipine 10 mg + Tadalafil 5 mg
[10] = pooled Cilnidipine 20 mg and Cilnidipine 20 mg + Tadalafil 5 mg
[11] = pooled cilnidipine 10 mg and 20 mg arms (combination: + tadalafil 5 mg)

COCCOC(=O)C1=C(C)NC(C)=C(C(=O)OC/C=C/c2ccccc2)C1c1cccc([N+](=O)[O-])c1 (stereo not drawn) [Cilnidipine]
Average Pain Score Change From Baseline [Mean (SD)] ([1]; Cilnidipine 10 mg (n = 4)): 0.47 | Average Raynaud's Pain (change) ([1]; Cilnidipine 20 mg (n = 3)): 12% | Average Pain Score Change From Baseline [Mean (SD)] ([1]; Cilnidipine 20 mg (n = 3)): −0.47 | Average Raynaud's Pain (change) ([1]; Pooled Cilnidipine (n = 7)): −27% | SHAQ Standard Disability Index, Change from Baseline, Mean (SD) [2, 3]: −0.041 (0.1990) | SHAQ Standard Disability Index, Change from Baseline, Median [2, 3]: 0.000 | SHAQ Standard Disability Index, Percent Change from Baseline, Median [2, 3]: 0.00% | SHAQ Standard Disability Index, In-Clinic Visit (Day 12), Median ([2]; Cilnidipine 10 mg (N = 3), Patients with Diagnosis of SSc, Modified ITT Population - Part A): 1.125 | SHAQ Standard Disability Index, Change from Baseline, Max [2, 4]: 0.00 | SHAQ Standard Disability Index, Change from Baseline, Min [2, 4]: 0.00, | SHAQ Standard Disability Index, Change from Baseline, Q1 [2, 4]: 0.000, | SHAQ Standard Disability Index, Change from Baseline, Q3 [2, 4]: 0.000 | SHAQ Standard Disability Index, Day 12, Max [2, 4]: 1.50 | SHAQ Standard Disability Index, Day 12, Mean [2, 4]: 0.656 | SHAQ Standard Disability Index, Day 12, Median [2, 4]: 0.563 | SHAQ Standard Disability Index, Day 12, Min [2, 4]: 0.00, | SHAQ Standard Disability Index, Day 12, Q1 [2, 4]: 0.000, | SHAQ Standard Disability Index, Day 12, Q3 [2, 4]: 1.313 | SHAQ Standard Disability Index, Percent Change from Baseline, Max [2, 4]: 0.0 | SHAQ Standard Disability Index, Percent Change from Baseline, Min [2, 4]: 0.0, | SHAQ Standard Disability Index, Percent Change from Baseline, Q1 [2, 4]: 0.00, | SHAQ Standard Disability Index, Percent Change from Baseline, Q3 [2, 4]: 0.00 | SHAQ Standard Disability Index, Change from Baseline, Mean [2, 5]: −0.125 | SHAQ Standard Disability Index, Change from Baseline, Median [2, 5]: −0.125 | SHAQ Standard Disability Index, Percent Change from Baseline, Mean [2, 5]: −50.00% | SHAQ Standard Disability Index, Percent Change from Baseline, Median [2, 5]: −50.00% | SHAQ Standard Disability Index, In-Clinic Visit (Day 12), Mean ([2]; Cilnidipine 20 mg (N = 3), Patients with Diagnosis of SSc, Modified ITT Population - Part A): 0.125 | % change in Standard Disability Index ([2]; Cilnidipine 20 mg (n = 3)): −50% | SHAQ Standard Disability Index, Change from Baseline, Max [2, 6]: 0.13 | SHAQ Standard Disability Index, Change from Baseline, Mean [2, 6]: −0.063 | SHAQ Standard Disability Index, Change from Baseline, Median [2, 6]: −0.063 | SHAQ Standard Disability Index, Change from Baseline, Min [2, 6]: −0.25, | SHAQ Standard Disability Index, Change from Baseline, Q1 [2, 6]: −0.188, | SHAQ Standard Disability Index, Change from Baseline, Q3 [2, 6]: 0.063 | SHAQ Standard Disability Index, Day 12, Max [2, 6]: 0.75 | SHAQ Standard Disability Index, Day 12, Mean [2, 6]: 0.281 | SHAQ Standard Disability Index, Day 12, Median [2, 6]: 0.188 | SHAQ Standard Disability Index, Day 12, Min [2, 6]: 0.00, | SHAQ Standard Disability Index, Day 12, Q1 [2, 6]: 0.063, | SHAQ Standard Disability Index, Day 12, Q3 [2, 6]: 0.500 | SHAQ Standard Disability Index, Percent Change from Baseline, Max [2, 6]: 20.0 | SHAQ Standard Disability Index, Percent Change from Baseline, Mean [2, 6]: −26.67 | SHAQ Standard Disability Index, Percent Change from Baseline, Min [2, 6]: −66.7, | SHAQ Standard Disability Index, Percent Change from Baseline, Q1 [2, 6]: −66.67, | SHAQ Standard Disability Index, Percent Change from Baseline, Q3 [2, 6]: 20.00 | SHAQ Standard Disability Index, Change from Baseline, Mean [2, 7]: −0.065 | SHAQ Standard Disability Index, Change from Baseline, Median [2, 7]: 0.000 | SHAQ Standard Disability Index, Change from Baseline, Mean (SD) [2, 8]: −0.031 (0.1108) | SHAQ Standard Disability Index, In-Clinic Visit (Day 12), Mean (SD) [2, 8]: 0.469 (0.5853) | SHAQ Standard Disability Index, Percent Change from Baseline, Mean (SD) [2, 8]: −16.00 (34.189) % | % change in Standard Disability Index ([2]; Pooled Cilnidipine (n = 7)): −25% | % Δ from baseline, standard disability mean ([2]; Pooled cilnidipine (n=4)): −25% | Standard Disability Index Change from Baseline Max [2, 9]: 0.38 | Standard Disability Index Change from Baseline Mean [2, 9]: −0.021 | Standard Disability Index Change from Baseline Median [2, 9]: 0.000 | Standard Disability Index Change from Baseline Min [2, 9]: −0.31, | Standard Disability Index Change from Baseline Q3 [2, 9]: 0.000 | Standard Disability Index Day 12 Max [2, 9]: 1.50 | Standard Disability Index Day 12 Min [2, 9]: 0.00, | Standard Disability Index Day 12 Q1 [2, 9]: 0.188, | Standard Disability Index Day 12 Q3 [2, 9]: 1.125 | Standard Disability Index Percent Change from Baseline Max [2, 9]: 150.0% | Standard Disability Index Percent Change from Baseline Mean [2, 9]: 7.50% | Standard Disability Index Percent Change from Baseline Median [2, 9]: 0.00% | Standard Disability Index Percent Change from Baseline Min [2, 9]: −62.5, % | Standard Disability Index Percent Change from Baseline Q1 [2, 9]: −25.00, % | Standard Disability Index Percent Change from Baseline Q3 [2, 9]: 0.00% | Standard Disability Index Change from Baseline Max [2, 10]: 0.13 | Standard Disability Index Change from Baseline Mean [2, 10]: −0.092 | Standard Disability Index Change from Baseline Median [2, 10]: 0.000 | Standard Disability Index Change from Baseline Min [2, 10]: −0.52, | Standard Disability Index Change from Baseline Q1 [2, 10]: −0.250, | Standard Disability Index Day 12 Max [2, 10]: 1.75 | Standard Disability Index Day 12 Median [2, 10]: 0.250 | Standard Disability Index Day 12 Min [2, 10]: 0.00, | Standard Disability Index Day 12 Q1 [2, 10]: 0.000, | Standard Disability Index Day 12 Q3 [2, 10]: 0.857 | Standard Disability Index Percent Change from Baseline Max [2, 10]: 100.0% | Standard Disability Index Percent Change from Baseline Median [2, 10]: −33.33% | Standard Disability Index Percent Change from Baseline Min [2, 10]: −66.7, % | Standard Disability Index Percent Change from Baseline Q1 [2, 10]: −37.66, % | Standard Disability Index Percent Change from Baseline Q3 [2, 10]: 7.69% | Standard Disability Index Change from Baseline Max [2, 11]: 0.00 | Standard Disability Index Change from Baseline Mean [2, 11]: −0.054 | Standard Disability Index Change from Baseline Median [2, 11]: 0.000 | Standard Disability Index Change from Baseline Min [2, 11]: −0.25, | Standard Disability Index Change from Baseline Q3 [2, 11]: 0.000 | Standard Disability Index Day 12 Max [2, 11]: 1.50 | Standard Disability Index Day 12 Median [2, 11]: 0.125 | Standard Disability Index Day 12 Min [2, 11]: 0.00, | Standard Disability Index Day 12 Q1 [2, 11]: 0.000, | Standard Disability Index Percent Change from Baseline Max [2, 11]: 0.0% | Standard Disability Index Percent Change from Baseline Mean [2, 11]: −25.00% | Standard Disability Index Percent Change from Baseline Min [2, 11]: −66.7, % | Standard Disability Index Percent Change from Baseline Q1 [2, 11]: −50.00, % | Standard Disability Index Percent Change from Baseline Q3 [2, 11]: 0.00%
